Assay results: US8334315B2, “Substituted aromatic carboxamide and urea derivatives as vanilloid receptor ligands” (Gruenenthal GmbH, priority 2009, dated 2012)

Experiments:
[1] = molecular target: T1, hVR1 (Homo sapiens, UniProt Q8NER1); assay: Functional test on VR1, FLIPR Ca2+ influx in transfected CHO K1 cells, capsaicin; assay type: cell-based, human being; set-up: key to Ki (human being) [nM] Cap: agonist / partial agonist / no effect: AG=agonist; pAG=partial agonist; NE=no effect; settings: for Ki: capsaicin (Cap), includes values given in brackets after pAG, read-out: Ki (human being) [nM] Cap
T1 construct: expressed in transfected cells; host or cells: CHO K1 cells (ECACC), stably transfected
T1 sequence (Q8NER1 whole entry): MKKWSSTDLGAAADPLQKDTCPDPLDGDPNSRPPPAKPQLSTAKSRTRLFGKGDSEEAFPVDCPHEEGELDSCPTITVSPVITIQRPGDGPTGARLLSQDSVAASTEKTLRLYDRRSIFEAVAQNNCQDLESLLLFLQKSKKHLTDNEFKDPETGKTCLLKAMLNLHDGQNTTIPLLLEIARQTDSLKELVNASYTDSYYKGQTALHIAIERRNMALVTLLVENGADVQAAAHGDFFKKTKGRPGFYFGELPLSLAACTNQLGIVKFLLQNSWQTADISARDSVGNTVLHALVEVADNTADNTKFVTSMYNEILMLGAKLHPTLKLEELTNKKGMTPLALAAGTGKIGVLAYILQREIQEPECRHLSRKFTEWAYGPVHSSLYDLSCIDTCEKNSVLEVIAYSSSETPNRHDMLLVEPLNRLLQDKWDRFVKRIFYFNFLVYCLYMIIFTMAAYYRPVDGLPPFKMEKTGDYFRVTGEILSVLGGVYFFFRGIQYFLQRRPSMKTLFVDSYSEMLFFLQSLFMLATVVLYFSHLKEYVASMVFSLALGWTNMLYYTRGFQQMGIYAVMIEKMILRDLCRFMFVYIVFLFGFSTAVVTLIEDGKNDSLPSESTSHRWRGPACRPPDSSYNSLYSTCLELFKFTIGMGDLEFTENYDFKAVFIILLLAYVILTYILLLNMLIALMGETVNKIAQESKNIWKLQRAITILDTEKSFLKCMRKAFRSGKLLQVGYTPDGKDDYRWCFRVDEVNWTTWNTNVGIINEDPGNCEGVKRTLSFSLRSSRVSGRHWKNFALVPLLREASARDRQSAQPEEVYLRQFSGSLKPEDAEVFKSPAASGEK
Source text: In the process, the Ca^2+ influx is quantified in the FLIPR assay with the aid of a Ca^2+-sensitive dye (type Fluo-4, Molecular Probes Europe BV, Leiden, the Netherlands) in a fluorescent imaging plate reader (FLIPR, Molecular Devices, Sunnyvale, USA), as described hereinafter.
II. Functional Tests Carried Out on the Vanilloid Receptor (VR1)
The agonistic or antagonistic effect of the substances to be tested on the vanilloid receptor 1 (VR1) can also be determined using the following assay. In this assay, the influx of Ca^2+ through the channel is quantified with the aid of a Ca^2+-sensitive dye (type Fluo-4, Molecular Probes Europe BV, Leiden, the Netherlands) in a fluorescent imaging plate reader (FLIPR, Molecular Devices, Sunnyvale, USA).
Chinese hamster ovary cells (CHO K1 cells, European Collection of Cell Cultures (ECACC) United Kingdom) are stably transfected with the VR1 gene. For functional testing, these cells are plated out on poly-D-lysine-coated black 96-well plates having a clear base (BD Biosciences, Heidelberg, Germany) at a density of 25,000 cells/well. The cells are incubated overnight at 37° C. and 5% CO2 in a culture medium (Ham's F12 nutrient mixture, 10% by volume of FCS (foetal calf serum), 18 μg/ml of L-proline). The next day the cells are incubated with Fluo-4 (Fluo-4 2 μM, 0.01% by volume of Pluronic F127, Molecular Probes in HBSS (Hank's buffered saline solution), Gibco Invitrogen GmbH, Karlsruhe, Germany) for 30 minutes at 37° C. Subsequently, the plates are washed three times with HBSS buffer and after further incubation for 15 minutes at RT used for Ca^2+ measurement in a FLIPR assay. The Ca^2+-dependent fluorescence is measured before and after the addition of the substances to be tested (λex wavelength=488 nm, λem=540 nm). Quantification is carried out by measuring the highest fluorescence intensity (FC, fluorescence counts) over time.
The FLIPR protocol consists of 2 substance additions. First the compounds to be tested (10 μM) are pipetted onto the cells and the Ca^2+ influx is compared with the control (capsaicin 10 μM) (% activation based on the Ca^2+ signal after the addition of 10 μM of capsaicin). After 5 minutes' incubation, 100 nM of capsaicin are applied and the Ca^2+ influx is also determined.
Desensitising agonists and antagonists led to suppression of the Ca^2+ influx. The % inhibition is calculated compared to the maximum achievable inhibition with 10 μM of capsaicin.
Starting from the percentage displacement caused by different concentrations of the compounds to be tested of general formula I, IC50 inhibitory concentrations which cause a 50-per cent displacement of capsaicin were calculated. Ki values for the test substances were obtained by conversion by means of the Cheng-Prusoff equation (Cheng, Prusoff; Biochem. Pharmacol. 22, 3099-3108, 1973).
The affinity of the compounds according to the invention for the vanilloid receptor 1 (VR1/TRPV1 receptor) was determined as described hereinbefore (pharmacological methods I and II respectively).

[2] = molecular target: T1, hVR1; assay: Functional test on human VR1, 45° C. stimulus; assay type: cell-based, human being; settings: for IC50: read-out: IC50 (human being) [nM], 45° C.
[3] = read-out: IC50 (human being), 45° C.: inhibition (as a percentage)

SMILES | Ki [1] [nM] | IC50 [2] [nM] | other results
CC(C)(C)c1cc(CNC(=O)Nc2cc(F)cc3[nH]ncc23)n(-c2ccccn2)n1 [Example 216, 1-((3-tert-butyl-1-(pyridin-2-yl)-1H-pyrazol-5-yl)methyl)-3-(6-fluoro-1H-indazol-4-yl)urea] | 54 | 2120 | 
COc1ccc2cccc(C(C)C(=O)NCc3cc(C(F)(F)F)nn3-c3cccc(Cl)c3)c2c1 (stereo not drawn) [Example 212, N-((1-(3-chlorophenyl)-3-(trifluoromethyl)-1H-pyrazol-5-yl)methyl)-2-(7-methoxynaphthalen-1-yl)propanamide] | 8.3 | 626 | 
O=C(NCc1cc(C(F)(F)F)nn1-c1cccc(Cl)c1)Nc1ccc2scnc2c1 [Example 97, 1-(benzo[d]thiazol-5-yl)-3-((1-(3-chlorophenyl)-3-(trifluoromethyl)-1H-pyrazol-5-yl)methyl)urea] | 4.9 | 396 | 
O=C(NCc1cc(C(F)(F)F)nn1-c1cccc(Cl)c1)Nc1cccc2ccc(O)cc12 [Example 102, 1-((1-(3-chlorophenyl)-3-(trifluoromethyl)-1H-pyrazol-5-yl)methyl)-3-(7-hydroxynaphthalen-1-yl)urea] | 0.2 |  | inhibition at 2.5 µM [2, 3]: 48%
O=C(NCc1cc(C(F)(F)F)nn1-c1cccc(Cl)c1)Nc1cccc2cnccc12 [Example 110, 1-((1-(3-chlorophenyl)-3-(trifluoromethyl)-1H-pyrazol-5-yl)methyl)-3-(isoquinolin-5-yl)urea] | 0.4 | 110 | 
CC(C(=O)NCc1cc(C(F)(F)F)nn1-c1cccc(Cl)c1)c1cccc2cnc(Cl)cc12 (stereo not drawn) [Example 213, 2-(3-chloroisoquinolin-5-yl)-N-((1-(3-chlorophenyl)-3-(trifluoromethyl)-1H-pyrazol-5-yl)methyl)propanamide] | 0.07 | 264 | 
CC(C)(C)c1cc(CNC(=O)Nc2cccc3cccnc23)n(-c2cccc(Cl)c2)n1 [Example 107, 1-((3-tert-butyl-1-(3-chlorophenyl)-1H-pyrazol-5-yl)methyl)-3-(quinolin-8-yl)urea] | 22.4 | 375 | 
O=C(NCc1cc(C(F)(F)F)nn1-c1cccc(Cl)c1)Nc1ccc2c(c1)OCO2 [Example 83, 1-(Benzo[d][1,3]dioxol-5-yl)-3-((1-(3-chlorophenyl)-3-(trifluoromethyl)-1H-pyrazol-5-yl)methyl)urea] | 50.7 |  | inhibition at 2.5 µM [2, 3]: 16%
CC(C(=O)NCc1cc(C(F)(F)F)nn1-c1cccc(Cl)c1)c1cccc2c1CCC2O (stereo not drawn) [Example 207, N-((1-(3-chlorophenyl)-3-(trifluoromethyl)-1H-pyrazol-5-yl)methyl)-2-(1-hydroxy-2,3-dihydro-1H-inden-4-yl)propanamide] | 2.4 |  | inhibition at 10 µM ([2]; @ 10 μM, read-out: IC50 (human being), 45° C.: inhibition (as a percentage)): 14%
CC(C(=O)NCc1cc(C(F)(F)F)nn1-c1cccc(Cl)c1)c1cccc2cc(F)ccc12 (stereo not drawn) [Example 211, N-((1-(3-chlorophenyl)-3-(trifluoromethyl)-1H-pyrazol-5-yl)methyl)-2-(6-fluornaphthalen-1-yl)propanamide] |  | 154 | 
CC(C(=O)NCc1cc(C(F)(F)F)nn1-c1cccc(Cl)c1)c1cccc2c1CC=C2 (stereo not drawn) [Example 24, N-((1-(3-chlorophenyl)-3-(trifluoromethyl)-1H-pyrazol-5-yl)methyl)-2-(1H-inden-7-yl)propanamide] | 4 | 686 | 
O=C(NCc1cc(C(F)(F)F)nn1-c1ccc(OC(F)(F)F)cc1)Nc1ccc2c(c1)CCC2 [Example 180, 1-(2,3-dihydro-1H-inden-5-yl)-3-((1-(4-(trifluoromethoxy)phenyl)-3-(trifluoromethyl)-1H-pyrazol-5-yl)methyl)urea] | 41 |  | 
CC(C)(C)c1cc(CNC(=O)Nc2cccc3c2OCC3)n(-c2cccc(Cl)c2)n1 [Example 185, 1-((3-tert-butyl-1-(3-chlorophenyl)-1H-pyrazol-5-yl)methyl)-3-(2,3-dihydrobenzofuran-7-yl)urea] | 39.7 |  | Ki (human being) [nM] Cap: agonist / partial agonist / no effect [1]: pAG
CC(C)(C)c1cc(CNC(=O)Nc2cccc3c2CCC3)n(-c2cccc(Cl)c2)n1 [Example 78, 1-((3-tert-butyl-1-(3-chlorophenyl)-1H-pyrazol-5-yl)methyl)-3-(2,3-dihydro-1H-inden-4-yl)urea] | 2.4 |  | Ki (human being) [nM] Cap: agonist / partial agonist / no effect [1]: pAG
CC(C)(C)c1cc(CNC(=O)Nc2cccc3ccc(O)cc23)n(-c2cccc(Cl)c2)n1 [Example 101, 1-((3-tert-butyl-1-(3-chlorophenyl)-1H-pyrazol-5-yl)methyl)-3-(7-hydroxynaphthalen-1-yl)urea] | 0.5 |  | inhibition at 2.5 µM [2, 3]: 46%
CC(C(=O)NCc1cc(C(F)(F)F)nn1-c1cccc(Cl)c1)c1ccc2ncsc2c1 (stereo not drawn) [Example 42, 2-(benzo[d]thiazol-6-yl)-N-((1-(3-chlorophenyl)-3-(trifluoromethyl)-1H-pyrazol-5-yl)methyl)propanamide] | 4 |  | 
CC(C(=O)NCc1cc(C(F)(F)F)nn1-c1cccc(Cl)c1)c1cccc2c1CCCC2 (stereo not drawn) [Example 2, N-((1-(3-chlorophenyl)-3-(trifluoromethyl)-1H-pyrazol-5-yl)methyl)-2-(5,6,7,8-tetrahydronaphthalen-1-yl)propanamide] | 6.6 |  | 
O=C(NCc1cc(C(F)(F)F)nn1-c1cccc(Cl)c1)Nc1cccc2c(=O)[nH]ccc12 [Example 196, 1-((1-(3-chlorophenyl)-3-(trifluoromethyl)-1H-pyrazol-5-yl)methyl)-3-(1-oxo-1,2-dihydroisoquinolin-5-yl)urea] |  |  | Ki (human being) [nM] Cap: agonist / partial agonist / no effect [1]: AG
CC(C(=O)NCc1cc(C(F)(F)F)nn1-c1cccc(Cl)c1)c1cccc2c1ccn2C (stereo not drawn) [Example 26, N-((1-(3-chlorophenyl)-3-(trifluoromethyl)-1H-pyrazol-5-yl)methyl)-2-(1-methyl-1H-indol-4-yl)propanamide] | 21.5 |  | 
CC(C)(C)c1cc(CNC(=O)Nc2ccc3c(c2)CCC3)n(-c2cccc(F)c2)n1 [Example 176, 1-((3-tert-butyl-1-(3-fluorophenyl)-1H-pyrazol-5-yl)methyl)-3-(2,3-dihydro-1H-inden-5-yl)urea] | 34 |  | 
CC(C)(C)c1cc(CNC(=O)Nc2ccc3c(c2)CCC3)n(-c2ccc(F)c(Cl)c2)n1 [Example 177, 1-((3-tert-butyl-1-(3-chloro-4-fluorophenyl)-1H-pyrazol-5-yl)methyl)-3-(2,3-dihydro-1H-inden-5-yl)urea] | 10.3 |  | 
CC(C(=O)NCc1cc(C(F)(F)F)nn1-c1cccc(Cl)c1)c1cccc2c1CC(O)C2 (stereo not drawn) [Example 208, N-((1-(3-chlorophenyl)-3-(trifluoromethyl)-1H-pyrazol-5-yl)methyl)-2-(2-hydroxy-2,3-dihydro-1H-inden-4-yl)propanamide] | 62.6 | 298 | 
CC(C(=O)NCc1cc(C(F)(F)F)nn1-c1cccc(Cl)c1)c1cccc2c1ccc[n+]2[O-] (stereo not drawn) [Example 198, 5-(1-((1-(3-chlorophenyl)-3-(trifluoromethyl)-1H-pyrazol-5-yl)methylamino)-1-oxopropan-2-yl)quinolin 1-oxide] |  |  | Ki (human being) [nM] Cap: agonist / partial agonist / no effect [1]: AG
CC(C(=O)NCc1cc(C2CC2)nn1-c1cccc(Cl)c1)c1ccc2c(c1)OCO2 (stereo not drawn) [Example 183, 2-(benzo[d][1,3]dioxol-5-yl)-N-((1-(3-chlorophenyl)-3-cyclopropyl-1H-pyrazol-5-yl)methyl)propanamide] | 28.4 |  | 
O=C(NCc1cc(C(F)(F)F)nn1-c1ccc(Cl)cc1)Nc1ccc2c(c1)CCC2 [Example 174, 1-((1-(4-chlorophenyl)-3-(trifluoromethyl)-1H-pyrazol-5-yl)methyl)-3-(2,3-dihydro-1H-inden-5-yl)urea] | 75.8 |  | 
